Data on eight sequences can be found in patent US10690661B2, “Yeast-based biosensor” (priority 2014, dated 2020).

“Also recorded” adds a separate entry of the source.

Assay [1] has as its target Mutant receptors derived from RecCys1 mutagenesis. As to the kind of experiment: Dose response of mutant receptors evolved for cystatin chimera Cys2. Type of assay: cell-based, Saccharomyces cerevisiae. The conditions noted are these: FIG. 9b. The text has this: (§1) Receptor activation was coupled to green fluorescent protein (GFP) expression by cloning GFP downstream of the Ste2p-activated FUS1 promoter. Therefore a receptor mutant that is successfully activated by the POI will result in the cell fluorescing green. The discriminating power of the screen is improved by including an internal control, constitutive expression of mKate (a red fluorescent protein). Red fluorescence corresponds to cell size, and allows us to normalize the GFP measurement for more accurate sorting. […] The initial HTS has false positive (FP) rates of 20% and false negative (FN) rates of 10%. The FP and FN rate is overcome by doing multiple rounds of enrichment. In four rounds of enrichment, a population of cells is isolated that originally was 1 in 10^6.
(§2) Initial attempts to evolve directly for the cystatin/GSS peptides were unsuccessful. To take smaller evolutionary steps, chimera peptides were designed that were more similar to α-factor. Receptors were evolved to recognize peptide that contain several changes in the peptide sequence (FIG. 9a-c).
Receptors have been successfully evolved for some chimeras. Two steps have been completed for cystatin (evolving for Cys1 and then using that receptor as a parent to evolve for Cys2) and one step for GSS.

Assay [2] concerns evolved cystatin receptor. In kind it is cell-based, Saccharomyces cerevisiae.
For assay [3], the target named is Mutant receptors (RecCys1). As to the kind of experiment: Dose response of mutant receptors evolved for cystatin chimera Cys1. To be noted: FIG. 9a. Type of assay: cell-based, Saccharomyces cerevisiae.
Source text: as §1, §2

Assay [4] concerns Mutant receptor RecGssB. As to the kind of experiment: Dose response of mutant receptors evolved for GSS chimera GssB. Type of assay: cell-based, Saccharomyces cerevisiae.
Source text: as §1, §2

For assay [5], the target named is T1, native Ste2 receptor (Saccharomyces cerevisiae, UniProt D6VTK4, A176T/D201G/D370N/S34T).
T1 construct: contains yeast Sterile2 (Ste2) receptor between the constitutive GPD promoter and the CYC1 terminator; expressed in transfected cells; host or cells: S. cerevisiae MPY578t5 derivatives (native STE2 removed), plasmid pJB036
T1 sequence (D6VTK4 whole entry S34T/A176T/D201G/D370N): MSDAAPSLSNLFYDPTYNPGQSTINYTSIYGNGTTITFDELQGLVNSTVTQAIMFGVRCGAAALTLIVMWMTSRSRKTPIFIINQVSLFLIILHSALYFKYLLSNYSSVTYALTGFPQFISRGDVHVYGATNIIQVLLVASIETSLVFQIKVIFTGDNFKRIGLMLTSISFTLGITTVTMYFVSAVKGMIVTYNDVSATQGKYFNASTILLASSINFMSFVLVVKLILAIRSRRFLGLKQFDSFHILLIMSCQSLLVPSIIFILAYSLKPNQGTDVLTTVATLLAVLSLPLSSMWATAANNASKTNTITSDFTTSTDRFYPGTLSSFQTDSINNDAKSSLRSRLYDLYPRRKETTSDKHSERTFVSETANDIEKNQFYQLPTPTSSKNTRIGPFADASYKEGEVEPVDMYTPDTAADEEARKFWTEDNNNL
The conditions noted are these: physiological concentrations; previous literature; cited from earlier work.

The target of assay [6] is Mutant 44.1 (mutant Ste2 receptor). As to the kind of experiment: GFP/RFP reporter dose response, isolated mutant receptor Mutant 44.1. The conditions noted are these: alpha factor on Mutant 44.1, compared with native Ste2; FIG. 3B.
For assay [7], the system named is mutant Ste2 receptors isolated for Variant 56. As to the kind of experiment: GFP/RFP reporter dose response, mutants isolated for sensitivity to ligand Variant 56.
The target of assay [8] is Mutant 56.5 (mutant Ste2 receptor). Briefly: GFP/RFP reporter dose response, isolated mutant receptor Mutant 56.5. To be noted: alpha factor on Mutant 56.5, compared with native Ste2; FIG. 4B.
Assay [9] concerns evolved receptors (from Ste2p). Briefly: Sensitivity enhancement dose response of evolved receptors. In kind it is cell-based, Saccharomyces cerevisiae. The conditions noted are these: FIG. 11.
Assay [10] concerns the target T1, native Ste2 receptor. As to the kind of experiment: GFP/RFP reporter dose response in yeast expressing the native Ste2 receptor. In kind it is cell-based. To be noted: compared to the native ligand.
Assay [11] deals with re-mutagenized mutant Ste2 receptor library. As to the kind of experiment: Screen of library made by re-mutagenizing a Variant 56-sensitive mutant receptor. Type of assay: cell-based, Saccharomyces cerevisiae. To be noted: FIG. 7a. An excerpt:
Specificity can be increased with iterative selection and counter-selection (FIG. 7b). […] Round 2 library mutants were also screened for lack of activity for α-factor, confirming the evolution of receptors for specificity against α-factor (FIG. 7c).

In the case of ALALKPGEPMY [Cys2], the “EC50 relative to RecSte2p” value in assay [1] is recorded as “lower”.
For “ALDFAVGEYNK (listed as Cystatin chimera) [Cys5]”, the “response of evolved cystatin receptor” value in [2] (FIG. 13B) was “rises in response”. Besides, in assay [2] (FIG. 14A-C), the “response of receptor mutants evolved from Ste2p (dose response curve)” value is reported as “respond”.
On to HALALKPGEPMY [Cys1], for which the “EC50 relative to RecSte2p” value in assay [3] was “lower”.
Regarding LRLLALKPGQPLYGR [Gss1], in assay [4] (receptors carrying mutations that enhance the response to GssB), the “effect of GssB-enhancing receptor mutations on response” value is “enhance response”.
On to WAWLQLKPGQPMY, for which the “response of Ste2 to the ligand” value in [5] was “very low response, if any”.
Regarding WHWLQLKPGEPLYGR [GssB], the “EC50 relative to RecSte2p” value in [4] (FIG. 9c) is listed as “lower”.
Take WHWLQLKPGQPMY [α-factor]: the “EC50 relative to Ste2” value in assay [6] and in assay [8] was “significantly higher” in each case. In addition, the “activity of isolated mutants for the native pheromone” value in [7] (FIG. 4B) is “maintained some activity”. The “response of evolved receptor to the native ligand” value in assay [4] (FIG. 9d) is reported as “do not respond; also recorded: no longer responds”. In addition, the “concentration at which evolved receptors respond, relative to wild type/Ste2p receptor” value in assay [9] is on record as “concentrations lower than the wild type”.
Take WHYLQLKPGQPMY [Variant 56]: in assay [7] (all five isolated mutants, FIG. 4A, FIG. 5), the “EC50 relative to Ste2” value was “significantly lower”. Also, the “response of Ste2 to the ligand” value in [5] is “very low response, if any”. Besides, the “activity of the native Ste2 receptor for the ligand” value in assay [10] was “little activity”. Moreover, the “activity of new library after second round of mutagenesis” value in assay [11] is “increased activity”.
